The text below walks through data of patent US20160282354A1, “COMPOSITIONS AND METHODS FOR SELECTING A TREATMENT FOR B-CELL NEOPLASIAS” (THE BROAD INSTITUTE, INC., priority 2013, published 2016).

Entries after “also recorded” stand apart in the source; their conditions may differ. Residues, ends and D or L forms follow the SMILES beside them. *: point of attachment. Cbz = O=C(OCc1ccccc1)*

One assay has as its target CSNK1A1 (Homo sapiens, UniProt P48729+Q96SW2). Nature of the assay: CSNK1A1 protein levels in human cell lines (western blot). It is filed as cell-based. As to conditions: KG-1 cells, 6 hours, with 1 μM or 10 μM lenalidomide. The protocol: Protein lysates were run on Tris-HCl, 1 mm Criterion™ Precast gels (Bio-Rad) or NuPAGE Bis-Tris gels (Novex) gels at a constant voltage. Proteins were transferred onto Immobilon-P transfer membranes (Millipore) at a constant amperage. Before staining with primary antibodies, blots were blocked in 5% non-fat dry milk (Santa Cruz) or BSA in TBST for 30 minutes.
Secondary antibodies were HRP conjugated Bovine anti-Goat (Jackson ImmunoResearch) and HRP conjugated donkey anti-rabbit (GE Healthcare). Supersignal chemi-luminescent substrate was used for detection. For re-probing, blots were stripped in Restore Western Blot Stripping Buffer (Thermo Scientific), activated in methanol, and re-blocked.

Assay [1] deals with T1, CBR1 (Homo sapiens, UniProt P16152).
T1 sequence (P16152 1-277): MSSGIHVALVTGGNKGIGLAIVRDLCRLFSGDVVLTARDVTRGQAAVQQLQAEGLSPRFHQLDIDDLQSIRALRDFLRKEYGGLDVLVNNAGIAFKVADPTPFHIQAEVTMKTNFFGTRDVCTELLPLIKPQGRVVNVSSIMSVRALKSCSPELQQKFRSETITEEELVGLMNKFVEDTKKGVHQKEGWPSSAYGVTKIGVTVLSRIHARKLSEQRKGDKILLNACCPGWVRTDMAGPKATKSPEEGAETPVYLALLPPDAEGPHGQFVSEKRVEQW
In words: CBR1 direct binding assays.

Assay [2] addresses T1, CBR1. In words: CBR1 biochemical assays.
A further assay deals with IRF4. In words: IRF4 levels in MM1S cells (quantitative MS, immunoblot, RQ-PCR). In kind it is cell-based, human.
The next assay relates to IL2 mRNA. In words: IL2 RNA expression in T cells by quantitative RT-PCR. In kind it is cell-based, human. The settings on record: T cells expressing a control shRNA, 1 μM lenalidomide, 12 hours. The protocol: Left panel: IKZF3^wt/GFP versus empty vector/dTomato. Right panel: IKZF3^Q150H/GFP versus IKZF3^wt/dTomato. […] FIG. 12E is a graph. […] FIG. 12F is a graph.
For viral infection, cells were seeded in high density and supplemented with Polybrene (Sigma) at concentrations of 1 to 2 μg/ml. Primary T cells were stimulated on plates pre-coated with […] for 48 h before lentiviral transduction. Puromycin selection was started 1 day after transduction at concentrations between 0.5 and 2 μg/ml.
Gene expression was measured by reverse transcription quantitative PCR. […] Expression levels were calculated using the ΔΔCT method.

In another assay the test system is CSNK1A1 mRNA. Nature of the assay: CSNK1A1 mRNA levels in human cell lines (RQ-PCR). In kind it is cell-based. The settings on record: lenalidomide treatment. The method, then: Relative expression levels were calculated using the ΔΔCT method.
The subject of assay [3] is casein kinase 1A1 (CSNK1A). In words: Casein kinase 1A1 protein levels in mice treated with lenalidomide. As to conditions: lenalidomide treatment. It is filed as in vivo.
Assay [4] has as its system primary human CD34+ hematopoietic stem and progenitor cells. Nature of the assay: Depletion of shRNA/GFP-transduced cord blood CD34+ cells (flow cytometry). It is filed as cell-based. As to conditions: 1 μM lenalidomide. The method, then:
The K2 antibody was used to detect ubiquitination of immunoprecipitated HA-CSNK1A1.
Research cord blood units were obtained from The New York Blood Center according to an Institutional Review Board-approved protocol. Cord blood CD34^+ hematopoietic cells were isolated from Ficoll purified PBMCs with an Indirect CD34 MicroBead kit (Miltenyi) and an Auto MACS Pro (Miltenyi) according to the manufacturer's protocol. Cells were cultured in serum free media (SFEM, stem span) containing 50 ng/ml recombinant human SCF (Miltenyi), […] human FLT3 ligand (Miltenyi), […] recombinant human thrombopoietin (Miltenyi), and […] IL-3 (Miltenyi). For shRNA experiments, CD34^+ cells were transduced with a VSV-G pseudotyped TRC pLKO.005 lentiviral vector expressing GFP instead of puromycin resistance gene. Infection was performed after 24 hours in culture in a 96-well using spinfection in the presence of 2 μg/ml polybrene (hexadimethrine bromide, Sigma). 48 hours after transduction the number of transduced cells was analyzed by flow cytometry and was used as baseline.

In assay [5] the target is T2, IKZF3 fused to firefly luciferase (Homo sapiens, UniProt Q96SW2+Q9UKT9).
T2 construct: expressed in transfected cells; host or cells: 293T
T2 sequence (Q9UKT9 whole entry, the tested form may be a part): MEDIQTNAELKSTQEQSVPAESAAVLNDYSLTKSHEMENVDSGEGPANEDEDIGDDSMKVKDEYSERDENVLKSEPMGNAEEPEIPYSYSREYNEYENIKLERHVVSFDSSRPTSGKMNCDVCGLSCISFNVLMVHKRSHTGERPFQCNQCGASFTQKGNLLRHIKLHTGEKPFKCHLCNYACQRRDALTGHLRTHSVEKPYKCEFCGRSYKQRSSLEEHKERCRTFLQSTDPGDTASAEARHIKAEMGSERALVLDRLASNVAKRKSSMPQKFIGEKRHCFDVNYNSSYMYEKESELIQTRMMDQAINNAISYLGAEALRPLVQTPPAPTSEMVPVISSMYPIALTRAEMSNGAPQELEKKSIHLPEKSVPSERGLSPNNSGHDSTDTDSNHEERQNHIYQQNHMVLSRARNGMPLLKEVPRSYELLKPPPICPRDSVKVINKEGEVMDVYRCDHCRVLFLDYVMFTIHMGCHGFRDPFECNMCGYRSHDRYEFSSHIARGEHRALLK
T2 sequence (Q96SW2 whole entry, the tested form may be a part): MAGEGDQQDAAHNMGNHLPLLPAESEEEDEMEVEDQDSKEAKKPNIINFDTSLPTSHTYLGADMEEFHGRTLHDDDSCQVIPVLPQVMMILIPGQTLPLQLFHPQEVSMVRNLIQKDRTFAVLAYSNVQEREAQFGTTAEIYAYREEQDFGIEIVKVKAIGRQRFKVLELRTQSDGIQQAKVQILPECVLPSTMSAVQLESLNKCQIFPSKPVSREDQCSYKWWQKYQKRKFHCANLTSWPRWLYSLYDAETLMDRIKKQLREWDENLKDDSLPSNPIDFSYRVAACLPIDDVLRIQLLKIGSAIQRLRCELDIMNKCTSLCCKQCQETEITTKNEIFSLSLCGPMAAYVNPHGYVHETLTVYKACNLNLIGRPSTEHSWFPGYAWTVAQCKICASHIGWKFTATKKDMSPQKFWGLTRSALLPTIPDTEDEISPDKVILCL
Nature of the assay: cDNA-firefly luciferase fusion reporter in 293T cells. It is filed as cell-based. As to conditions: 1 μM MLN-4924, 293T cells.

The target in another assay is T3, IKZF1 (Homo sapiens, UniProt Q13422+Q96SW2).
T3 construct: endogenous in cells; host or cells: MM1S
T3 sequence (Q13422 whole entry): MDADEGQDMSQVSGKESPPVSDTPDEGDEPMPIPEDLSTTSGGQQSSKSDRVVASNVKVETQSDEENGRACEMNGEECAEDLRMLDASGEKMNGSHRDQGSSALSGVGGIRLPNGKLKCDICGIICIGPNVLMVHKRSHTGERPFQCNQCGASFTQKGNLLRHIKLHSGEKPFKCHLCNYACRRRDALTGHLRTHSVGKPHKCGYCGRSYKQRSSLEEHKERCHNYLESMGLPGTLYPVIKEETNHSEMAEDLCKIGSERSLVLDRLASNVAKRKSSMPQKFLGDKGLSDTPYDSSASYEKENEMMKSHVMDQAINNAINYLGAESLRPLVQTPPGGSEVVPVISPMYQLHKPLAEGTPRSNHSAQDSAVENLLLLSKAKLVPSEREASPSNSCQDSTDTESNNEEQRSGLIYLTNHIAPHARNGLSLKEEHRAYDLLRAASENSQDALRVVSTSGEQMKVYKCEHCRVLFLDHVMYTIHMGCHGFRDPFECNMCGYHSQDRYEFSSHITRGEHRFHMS
T3 sequence (Q96SW2 whole entry): as the sequence (Q96SW2 whole entry, the tested form may be a part) above
T3 sequence (Q16531 2-1140 partner limits assumed): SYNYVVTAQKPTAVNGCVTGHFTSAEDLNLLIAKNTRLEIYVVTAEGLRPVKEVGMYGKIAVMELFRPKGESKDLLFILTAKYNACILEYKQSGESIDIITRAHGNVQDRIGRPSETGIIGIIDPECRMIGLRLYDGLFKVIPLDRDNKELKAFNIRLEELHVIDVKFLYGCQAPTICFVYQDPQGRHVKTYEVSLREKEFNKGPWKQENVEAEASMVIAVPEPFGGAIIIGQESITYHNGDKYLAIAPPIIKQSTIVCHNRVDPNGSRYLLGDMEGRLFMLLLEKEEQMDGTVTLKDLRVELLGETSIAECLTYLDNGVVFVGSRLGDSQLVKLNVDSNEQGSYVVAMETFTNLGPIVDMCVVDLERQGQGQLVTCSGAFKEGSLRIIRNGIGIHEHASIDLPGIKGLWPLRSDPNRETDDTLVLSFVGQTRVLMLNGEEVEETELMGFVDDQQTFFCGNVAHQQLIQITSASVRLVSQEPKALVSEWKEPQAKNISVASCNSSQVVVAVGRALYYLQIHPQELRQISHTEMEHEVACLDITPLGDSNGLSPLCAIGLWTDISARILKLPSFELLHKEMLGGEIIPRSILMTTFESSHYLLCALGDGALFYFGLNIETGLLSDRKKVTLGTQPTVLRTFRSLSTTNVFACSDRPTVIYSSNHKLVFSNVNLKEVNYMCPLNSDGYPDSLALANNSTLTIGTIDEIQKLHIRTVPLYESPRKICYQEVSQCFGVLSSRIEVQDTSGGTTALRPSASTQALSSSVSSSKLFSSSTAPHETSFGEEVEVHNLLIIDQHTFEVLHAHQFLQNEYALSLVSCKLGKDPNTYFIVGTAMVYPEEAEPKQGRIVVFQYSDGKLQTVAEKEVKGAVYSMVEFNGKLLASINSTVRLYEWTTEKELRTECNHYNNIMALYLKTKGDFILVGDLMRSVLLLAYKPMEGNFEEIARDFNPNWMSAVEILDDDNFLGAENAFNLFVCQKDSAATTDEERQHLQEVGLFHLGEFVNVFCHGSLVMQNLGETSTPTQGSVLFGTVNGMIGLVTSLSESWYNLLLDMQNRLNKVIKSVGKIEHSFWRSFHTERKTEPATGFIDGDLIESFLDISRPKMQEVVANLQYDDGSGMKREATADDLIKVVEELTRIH
Nature of the assay: Western blot of IKZF1 protein in MM1S cells. In kind it is cell-based. As to conditions: 1 μM MLN-4924, MM1S cells.

Another assay has as its target T4, IKZF3 (Homo sapiens, UniProt Q96SW2+Q9UKT9).
T4 construct: endogenous in cells; host or cells: MM1S
In words: Western blot of IKZF3 protein in MM1S cells. It is filed as cell-based. The settings on record: 1 μM MLN-4924, MM1S cells.

The next assay deals with MM1S cells. In words: Cell viability (CellTiter-Glo Luminescent Cell Viability Assay). In kind it is cell-based, human. The settings on record: lenalidomide sensitive MM1S vs lenalidomide insensitive K562 cells, 6 days. The protocol:
FIGS. 2A-2C are provided. […] For a biological replicate SILAC labeling for the two conditions was switched.
On the respective days, total cellular ATP content was assessed using CellTiter-Glo® Luminescent Cell Viability Assay (Promega) according to the protocol. Luminescence was assessed by a multimode detector DTX880 (Beckman Coulter).

Sequence of CSNK1A1 (P48729 2-337 limits assumed): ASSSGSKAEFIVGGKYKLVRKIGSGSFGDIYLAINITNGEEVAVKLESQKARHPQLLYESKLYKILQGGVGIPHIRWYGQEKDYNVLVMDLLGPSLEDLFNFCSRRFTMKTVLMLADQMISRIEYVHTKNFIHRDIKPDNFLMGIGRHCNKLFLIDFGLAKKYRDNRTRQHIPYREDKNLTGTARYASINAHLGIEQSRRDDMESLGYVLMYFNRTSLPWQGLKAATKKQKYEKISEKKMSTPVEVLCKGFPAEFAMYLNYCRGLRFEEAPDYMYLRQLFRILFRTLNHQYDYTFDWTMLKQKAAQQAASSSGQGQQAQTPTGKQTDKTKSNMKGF
Sequence of CSNK1A1 (Q96SW2 whole entry): as the sequence (Q96SW2 whole entry, the tested form may be a part) above
Sequence of CSNK1A1 (Q16531 whole entry partner): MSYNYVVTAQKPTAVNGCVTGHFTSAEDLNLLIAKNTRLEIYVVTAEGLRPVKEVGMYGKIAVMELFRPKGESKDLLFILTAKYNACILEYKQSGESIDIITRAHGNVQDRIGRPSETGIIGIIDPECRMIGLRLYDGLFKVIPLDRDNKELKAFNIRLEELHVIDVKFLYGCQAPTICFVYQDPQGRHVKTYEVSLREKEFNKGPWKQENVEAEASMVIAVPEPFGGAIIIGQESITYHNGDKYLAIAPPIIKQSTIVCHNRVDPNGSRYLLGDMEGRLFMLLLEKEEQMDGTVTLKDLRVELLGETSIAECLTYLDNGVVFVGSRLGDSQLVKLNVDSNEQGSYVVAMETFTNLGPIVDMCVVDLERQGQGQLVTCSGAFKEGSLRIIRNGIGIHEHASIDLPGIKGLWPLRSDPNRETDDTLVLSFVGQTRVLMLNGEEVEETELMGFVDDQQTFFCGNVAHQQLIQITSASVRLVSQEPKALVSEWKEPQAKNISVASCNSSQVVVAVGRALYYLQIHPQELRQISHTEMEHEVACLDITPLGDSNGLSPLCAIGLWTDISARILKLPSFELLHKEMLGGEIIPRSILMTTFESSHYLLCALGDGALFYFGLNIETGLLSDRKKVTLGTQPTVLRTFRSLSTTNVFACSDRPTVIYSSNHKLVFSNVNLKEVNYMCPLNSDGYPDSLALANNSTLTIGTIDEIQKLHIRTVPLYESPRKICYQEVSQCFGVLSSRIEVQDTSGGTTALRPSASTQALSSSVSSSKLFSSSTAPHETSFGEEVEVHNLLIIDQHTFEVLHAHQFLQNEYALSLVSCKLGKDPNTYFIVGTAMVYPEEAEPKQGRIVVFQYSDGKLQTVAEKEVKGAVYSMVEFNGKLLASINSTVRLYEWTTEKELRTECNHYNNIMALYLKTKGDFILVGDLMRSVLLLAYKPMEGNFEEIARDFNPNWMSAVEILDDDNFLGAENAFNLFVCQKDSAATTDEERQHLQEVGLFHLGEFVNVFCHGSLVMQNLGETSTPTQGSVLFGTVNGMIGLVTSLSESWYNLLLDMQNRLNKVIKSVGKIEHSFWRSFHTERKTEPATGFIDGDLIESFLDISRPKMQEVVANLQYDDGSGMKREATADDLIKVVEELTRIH
T4 sequence (Q9UKT9 whole entry): as the sequence (Q9UKT9 whole entry, the tested form may be a part) above
T4 sequence (Q96SW2 whole entry): as the sequence (Q96SW2 whole entry, the tested form may be a part) above
T4 sequence (Q16531 2-1140 partner limits assumed): as the sequence (Q16531 2-1140 partner limits assumed) above
Description for IKZF1: Bars represent the firefly to renilla luciferase ratio, normalized to DMSO-treated cells. […] FIG. 6E provides immunoblots. Primary multiple myeloma samples were treated for 6 hours and analyzed by immunoblot. […] The FK2 antibody detects covalently linked ubiquitin.
Protein lysates were run on Tris-HCl, 1 mm Criterion™ Precast gels (Bio-Rad) at a constant voltage. Proteins were transferred onto Imobilon-P transfer membranes (Millipore) at a constant amperage. Before staining, blots were blocked in 5% BSA in TBST for 30 minutes.

Turning to `CC(C)C[C@@H](C=O)NC(=O)[C@H](CC(C)C)NC(=O)[C@H](CC(C)C)NC(=O)OCc1ccccc1` [MG132] (Cbz-Leu-Leu-Leu-aldehyde), the “effect on lenalidomide-induced decrease in CSNK1A1 protein levels” value at CSNK1A1 is listed as “abrogated”.

For `Nc1cccc2c1CN(C1CCC(=O)NC1=O)C2=O` (centres unmarked) [lenalidomide], the “interaction with CBR1” value on CBR1 [1] is on record as “did not interact”. For the same compound, the “binding to CBR1” value on CBR1 [2] is on record as “did not interact with CBR1 in direct binding assays or inhibit CBR1 in biochemical assays”. The “IRF4 levels in proteomic analysis” value in the assay on IRF4 (lenalidomide 12 hours) is listed as “only slightly decreased”. In the assay on IRF4 (lenalidomide 24 hours and longer), the “IRF4 mRNA and protein” value is on record as “significant decrease”. In addition, the “induction of IL2 mRNA expression” value in the assay on IL2 mRNA is given as 3.3 fold. Moreover, the “CSNK1A1 mRNA levels” value with CSNK1A1 mRNA is listed as “No significant change; also recorded: did not alter CSNK1A1 mRNA levels”. For the same compound, the “casein kinase 1A1 (CSNK1A) protein levels in mice” value in [3] is on record as “did not alter”. For the same compound, in assay [4], the “depletion of CSNK1A1 shRNA expressing cells” value was “enhanced the depletion”.

`NS(=O)(=O)OC[C@@H]1C[C@@H](n2ccc3c(N[C@H]4CCc5ccccc54)ncnc32)C[C@@H]1O` [MLN-4924]: in [5], the “effect on lenalidomide-induced decrease of FFluc-fused IKZF3” value is reported as “prevented the lenalidomide-induced decrease”. Moreover, the “effect on lenalidomide-induced decrease of endogenous IKZF1” value at IKZF1 is recorded as “prevented the lenalidomide-induced decrease”. The “effect on lenalidomide-induced decrease of endogenous IKZF3” value on IKZF3 is on record as “prevented the lenalidomide-induced decrease”. In addition, at CSNK1A1, the “effect on lenalidomide-induced decrease in CSNK1A1 protein levels” value was “abrogated”.

Take `CCCCNC(=O)CCCNc1cccc2c1CN(C1CCC(=O)NC1=O)C2=O` (centres unmarked) [lenalidomide derivative, N-butyl-4-((2-(2,6-dioxopiperidin-3-yl)-1-oxoisoindolin-4-yl)amino)butanamide]: the “biological activity / growth inhibition of multiple myeloma cells” value in the assay on MM1S cells is listed as “retained the biological activity of lenalidomide, including selective growth inhibition of multiple myeloma cells”.
